Values joined by “and” are separate entries in the source; they are usually repeats but may differ in a detail not shown here. Identical values can stand only once. Counter-ions that a name gives are not always drawn.
The compounds below were run on ATF4 translation (ATF4 pathway), SH-SY5Y-ATF4-NanoLuc cells (assay: ATF4 cell based assay (ATF4 5'-UTR NanoLuc luciferase reporter, Thapsigargin induced cellular stress)). Settings: SH-SY5Y-ATF4-NanoLuc cells challenged with Thapsigargin for 14-18 hours; average of two or more experimental runs; hydrochloride; read-out: average ATF4 pathway inhibitory activity (IC50).
Source text: The ATF4 reporter assay measures the effect of Thapsigargin induced cellular stress on ATF4 expression. For this reporter assay, a stable cell line was created by transfecting SH-SY5Y cells with a plasmid containing the NanoLuc® luciferase gene fused to the 5′-UTR of ATF4, under the control of the CMV promoter. The ATF4 5′-UTR contains two open reading frames which mediate the cellular stress-dependent translation of the reporter gene. Clones stably expressing the reporter construct were isolated and selected based on the luminescence response to thapsigargin and inhibition of this signal by test compounds. Briefly, SH-SY5Y-ATF4-NanoLuc cells were challenged with Thapsigargin for 14-18 hours to determine the stress effect with or without test compounds.
Cells were propagated in growth media consisting of 90% DMEM F12 (InVitrogen #11320-033), 10% Fetal Bovine Serum (Gibco #10438-026), 5 mM Glutamax (Gibco #35050-061), 5 mM Hepes, (Gibco #15630-080), and 0.5 mg/ml Geneticin (Gibco #10131-027). Cells were prepared for the assay by removing all media from cells, washing the plated cells with phosphate buffered saline, and detached by adding a solution comprised of 10% Tryple express solution (InVitrogen12604-021) and 90% enzyme-free cell dissociation buffer HANKS base (Gibco 13150-016). The trypsin was deactivated by adding assay media comprised of 90% phenol-red free DMEM F12 (InVitrogen, 11039), 10% Fetal Bovine Serum (Gibco #10438-026), (5 mM Glutamax (Gibco #35050-061), 5 mM Hepes, (Gibco #15630-080), and 0.5 mg/ml Geneticin (Gibco #10131-027). Suspended cells were spun down at 300 g for 5 min, the supernatant was removed and the cell pellet was suspended in warm media (30-37° C.) comprised as above at (1e6 cell/ml).
Assay plates were prepared by adding 250 nL of compound stock solution in 100% DMSO to each well, followed by dispensing 20 microliters/well cell suspension to deliver 15-20 k cell/well. Cells were incubated for 1 hour at 37° C. Then, 5 μL of 1.5 μM or 1 μM of Thapsigargin (final concentration: 200-300 nM) was added to each well of cells. Assay plates containing cells were incubated for 14-18 hours at 37° C.
The measurement of luciferase produced by the ATF4 constructs was measured as follows. Aliquots of the Nano-Glo reagent (Nano-Glo® Luciferase Assay Substrate, Promega, N113, Nano-Glo® Luciferase Assay Buffer, Promega, N112 (parts of Nano-Glo® Luciferase Assay System, N1150) were brought to room temperature, the substrate and buffer were mixed according to manufacturer's instructions. The cell plates were equilibrated to room temperature. 25 microliters/well of the mixed Nano-Glo reagent were dispensed into assay wells and pulse spun to settle contents and the plate was sealed with film. The plates were incubated at room temperature for 1 hour before detecting luminescence on an Envision plate reader.
Compounds of the invention are tested for activity against ATF4 translation in the above assay.

| Structure (SMILES) | IC50 [nM] |
| --- | --- |
| O=C(COc1ccc(Cl)nc1)N[C@H]1[C@@H]2CN(CCCOc3ccc(Cl)cc3)C[C@@H]21 [Example 71, N-((1R,5S,6s)-3-(3-(4-chlorophenoxy)propyl)-3-azabicyclo[3.1.0]hexan-6-yl)-2-((6-chloropyridin-3-yl)oxy)acetamide hydrochloride] | 136 |

Same assay, conditions: SH-SY5Y-ATF4-NanoLuc cells challenged with Thapsigargin for 14-18 hours; average of two or more experimental runs; read-out: average ATF4 pathway inhibitory activity (IC50)

| Structure (SMILES) | IC50 |
| --- | --- |
| O=C(COc1ccc(Cl)cc1)N[C@H]1[C@@H]2CN(CCCOc3ccc(Cl)cn3)C[C@@H]21 [Example 53, 2-(4-chlorophenoxy)-N-((1R,5S,6s)-3-(3-((5-chloropyridin-2-yl)oxy)propyl)-3-azabicyclo[3.1.0]hexan-6-yl)acetamide] | 101 to 1000 nM |
| O=C(COc1ccc(Cl)cc1)NCC1CCN(C(=O)COc2cncc(Cl)c2)C1 (centres unmarked) [Example 10, 2-(4-chlorophenoxy)-N-((1-(2-((5-chloropyridin-3-yl)oxy)acetyl)pyrrolidin-3-yl)methyl)acetamide] | 1000 to 10000 nM |
| O=C(COc1ccc(Cl)cc1)NCC1CCN(CC(O)COc2ccc(Cl)cc2)C1 (centres unmarked) [Example 77, 2-(4-chlorophenoxy)-N-((1-(3-(4-chlorophenoxy)-2-hydroxypropyl)pyrrolidin-3-yl)methyl)acetamide] | < 100 nM and 65 nM |
| O=C(COc1ccc(Cl)cc1)NCC1CCN(C(=O)CCCc2ccc(Cl)cc2)C1 (centres unmarked) [Example 38, 2-(4-chlorophenoxy)-N-((1-(4-(4-chlorophenyl)butanoyl)pyrrolidin-3-yl)methyl)acetamide] | < 100 nM |
| O=C(COc1ccc(Cl)cc1)N[C@H]1[C@@H]2CN(CCCOc3ccc(Cl)nc3)C[C@@H]21 [Example 65, 2-(4-chlorophenoxy)-N-((1R,5S,6s)-3-(3-((6-chloropyridin-3-yl)oxy)propyl)-3-azabicyclo[3.1.0]hexan-6-yl)acetamide] | 101 to 1000 nM |
| O=C(COc1ccc(Cl)cc1)NCC1CC(=O)N(CCCOc2ccc(Cl)cc2)C1 (centres unmarked) [Example 81, 2-(4-chlorophenoxy)-N-((1-(3-(4-chlorophenoxy)propyl)-5-oxopyrrolidin-3-yl)methyl)acetamide] | 101 to 1000 nM |
| O=C(COc1ccc(Cl)cn1)NCC1CCN(CCCOc2ccc(Cl)cc2)C1 (centres unmarked) [Example 56, N-((1-(3-(4-chlorophenoxy)propyl)pyrrolidin-3-yl)methyl)-2-((5-chloropyridin-2-yl)oxy)acetamide] | 101 to 1000 nM |
| O=C(COc1ccc(Cl)nc1)N[C@H]1[C@@H]2CN(CCCOc3ccc(Cl)cc3)C[C@@H]21 [Example 51, N-((1R,5S,6s)-3-(3-(4-chlorophenoxy)propyl)-3-azabicyclo[3.1.0]hexan-6-yl)-2-((6-chloropyridin-3-yl)oxy)acetamide] | < 100 nM |
| Cc1cc(OCC(=O)NCC2CCN(CCCOc3ccc(Cl)cc3)C2)ccc1Cl (centres unmarked) [Example 47, 2-(4-chloro-3-methylphenoxy)-N-((1-(3-(4-chlorophenoxy)propyl)pyrrolidin-3-yl)methyl)acetamide] | < 100 nM |
| O=C(COc1ccc(Cl)cc1)NCC1CCN(CCOc2ccc(Cl)nc2)C1 (centres unmarked) [Example 13, 2-(4-chlorophenoxy)-N-((1-(2-((6-chloropyridin-3-yl)oxy)ethyl)pyrrolidin-3-yl)methyl)acetamide] | 1000 to 10000 nM |
| O=C(COc1ccc(Cl)cc1)NCC1CCN(CCCOc2ccc(C(F)(F)F)cc2)C1 (centres unmarked) [Example 63, 2-(4-chlorophenoxy)-N-((1-(3-(4-(trifluoromethyl)phenoxy)propyl)pyrrolidin-3-yl)methyl)acetamide] | 101 to 1000 nM |
| O=C(COc1ccc(Cl)cc1)NCC1CC(=O)N(CCOc2ccc(Cl)cc2)C1 (centres unmarked) [Example 3, 2-(4-chlorophenoxy)-N-((1-(2-(4-chlorophenoxy)ethyl)-5-oxopyrrolidin-3-yl)methyl)acetamide] | < 100 nM |
| O=C(COc1ccc(Cl)cc1)NCC1(F)CCN(CCOc2ccc(Cl)cc2)C1 (centres unmarked) [Example 42, 2-(4-chlorophenoxy)-N-((1-(2-(4-chlorophenoxy)ethyl)-3-fluoropyrrolidin-3-yl)methyl)acetamide] | 101 to 1000 nM |
| O=C(COc1ccc(Cl)cc1)NCC1CCN(CCCOc2cccc(Cl)c2)C1 (centres unmarked) [Example 50, 2-(4-chlorophenoxy)-N-((1-(3-(3-chlorophenoxy)propyl)pyrrolidin-3-yl)methyl)acetamide] | 101 to 1000 nM |
| O=C(COc1ccc(Cl)c(C(F)(F)F)c1)NCC1CCN(CCCOc2ccc(Cl)cc2)C1 (centres unmarked) [Example 72, 2-(4-chloro-3-(trifluoromethyl)phenoxy)-N-((1-(3-(4-chlorophenoxy)propyl)pyrrolidin-3-yl)methyl)acetamide] | < 100 nM |
| O=C(COc1ccc(Cl)cc1)NCC1(F)CCN(CCCOc2ccc(Cl)cc2)C1 (centres unmarked) [Example 60, 2-(4-chlorophenoxy)-N-((1-(3-(4-chlorophenoxy)propyl)-3-fluoropyrrolidin-3-yl)methyl)acetamide] | 101 to 1000 nM |
| O=C(COc1ccc(Cl)cc1)NCC1CCN(CCCOc2ccc(Cl)cc2)C1=O (centres unmarked) [Example 75, 2-(4-chlorophenoxy)-N-((1-(3-(4-chlorophenoxy)propyl)-2-oxopyrrolidin-3-yl)methyl)acetamide] | 101 to 1000 nM |
| O=C(COc1ccc(Cl)cc1)N[C@H]1[C@@H]2CN(C(=O)C3CC3c3ccc(Cl)cc3)C[C@@H]21 (stereo partly drawn) [Example 37, 2-(4-chlorophenoxy)-N-((1R,5S,6s)-3-(2-(4-chlorophenyl)cyclopropane-1-carbonyl)-3-azabicyclo[3.1.0]hexan-6-yl)acetamide] | < 100 nM and 69.5 nM |
| O=C(COc1ccc(Cl)cc1)N[C@H]1[C@@H]2CN(CCCOc3ccc(Cl)cc3)C[C@@H]21 [Example 28, 2-(4-chlorophenoxy)-N-((1R,5S,6s)-3-(3-(4-chlorophenoxy)propyl)-3-azabicyclo[3.1.0]hexan-6-yl)acetamide] | < 100 nM |
| O=C(COc1ccc(Cl)cc1)N[C@H]1[C@@H]2CN(CC(F)COc3ccc(Cl)cc3)C[C@@H]21 (stereo partly drawn) [Example 78, 2-(4-chlorophenoxy)-N-((1R,5S,6s)-3-(3-(4-chlorophenoxy)-2-fluoropropyl)-3-azabicyclo[3.1.0]hexan-6-yl)acetamide] | < 100 nM |
| O=C(COc1ccc(Cl)cc1)NCC1CCN(C(=O)C2CCc3cc(Cl)ccc3O2)C1 (centres unmarked) [Example 8, N-((1-(6-chlorochroman-2-carbonyl)pyrrolidin-3-yl)methyl)-2-(4-chlorophenoxy)acetamide] | < 100 nM |
| O=C(NCC1CCN(C(=O)COc2ccc(Cl)cc2)C1)C1CCc2cc(Cl)ccc2O1 (centres unmarked) [Example 22, 6-chloro-N-((1-(2-(4-chlorophenoxy)acetyl)pyrrolidin-3-yl)methyl)chroman-2-carboxamide] | < 100 nM |
| O=C(COc1ccc(Cl)c(F)c1)NCC1CCN(CCCOc2ccc(Cl)cc2)C1 (centres unmarked) [Example 55, 2-(4-chloro-3-fluorophenoxy)-N-((1-(3-(4-chlorophenoxy)propyl)pyrrolidin-3-yl)methyl)acetamide] | < 100 nM |
| CC1(CNC(=O)COc2ccc(Cl)cc2)CCN(C(=O)COc2ccc(Cl)cc2)C1 (centres unmarked) [Example 17, 2-(4-chlorophenoxy)-N-((1-(2-(4-chlorophenoxy)acetyl)-3-methylpyrrolidin-3-yl)methyl)acetamide] | 1000 to 10000 nM |
| O=C(COc1ccc(Cl)cc1)NOC1CCN(C(=O)C2CC2c2ccc(Cl)cc2)C1 (centres unmarked) [Example 34, 2-(4-chlorophenoxy)-N-((1-(2-(4-chlorophenyl)cyclopropane-1-carbonyl)pyrrolidin-3-yl)oxy)acetamide] | 101 to 1000 nM |
| O=C(COc1ccc(Cl)cc1)N1CCC(CNCCOc2ccc(Cl)cc2)C1 (centres unmarked) [Example 21, 2-(4-chlorophenoxy)-1-(3-(((2-(4-chlorophenoxy)ethyl)amino)methyl)pyrrolidin-1-yl)ethanone] | 101 to 1000 nM |

Same assay, conditions: read-out: average ATF4 pathway inhibitory activity (IC50)

| Structure (SMILES) | IC50 [nM] |
| --- | --- |
| O=C(COc1ccc(Cl)cc1)NC[C@@H]1CCN(C(=O)COc2ccc(Cl)cc2)C1 [Example 29, (S)-2-(4-chlorophenoxy)-N-((1-(2-(4-chlorophenoxy)acetyl)pyrrolidin-3-yl)methyl)acetamide] | 101 to 1000 |
| O=C(COc1ccc(Cl)cc1)NCC1CCN(CCOc2ccc(Cl)cc2)C1 (centres unmarked) [Example 2, 2-(4-chlorophenoxy)-N-((1-(2-(4-chlorophenoxy)ethyl)pyrrolidin-3-yl)methyl)acetamide] | < 100 |

Source: patent US10851053B2, “Chemical compounds” (GlaxoSmithKline Intellectual Property Development Limited, priority 2016, dated 2020)
